Reference: ChEMBL document CHEMBL3525952, “A Baeyer-Villiger oxidation specifically catalyzed by human flavin-containing monooxygenase 5” (Drug Metab Dispos, 2011)

Legend:
[1] = Drug metabolism in dog liver S9 fraction assessed as ER-879123 formation at 50 uM after 60 mins in presence of NADP+ by LC-MS/MS method; type: ADME, subcellular, Canis lupus familiaris; conditions: s9, 1 h
[2] = Drug metabolism in human liver S9 fraction assessed as ER-879123 formation at 50 uM after 60 mins in presence of NADP+ by LC-MS/MS method; type: ADME, subcellular; conditions: s9, 1 h
[3] = Drug metabolism in 50 degC treated human liver S9 fraction assessed as ER-879123 formation at 50 uM after 60 mins in absence of NAD+ by LC-MS/MS method; type: ADME, tissue-based; conditions: s9, 1 h
[4] = biological target: T1, Flavin-containing monooxygenase 5 (Homo sapiens, UniProt P49326); experiment: Drug metabolism assessed as human recombinant FMO5-mediated ER-879123 formation in presence of rat liver cytosolic fractions at 50 uM after 60 mins by LC-MS/MS method; type: ADME, tissue-based; conditions: recombinant enzyme, 1 h
T1 sequence (P49326 whole entry): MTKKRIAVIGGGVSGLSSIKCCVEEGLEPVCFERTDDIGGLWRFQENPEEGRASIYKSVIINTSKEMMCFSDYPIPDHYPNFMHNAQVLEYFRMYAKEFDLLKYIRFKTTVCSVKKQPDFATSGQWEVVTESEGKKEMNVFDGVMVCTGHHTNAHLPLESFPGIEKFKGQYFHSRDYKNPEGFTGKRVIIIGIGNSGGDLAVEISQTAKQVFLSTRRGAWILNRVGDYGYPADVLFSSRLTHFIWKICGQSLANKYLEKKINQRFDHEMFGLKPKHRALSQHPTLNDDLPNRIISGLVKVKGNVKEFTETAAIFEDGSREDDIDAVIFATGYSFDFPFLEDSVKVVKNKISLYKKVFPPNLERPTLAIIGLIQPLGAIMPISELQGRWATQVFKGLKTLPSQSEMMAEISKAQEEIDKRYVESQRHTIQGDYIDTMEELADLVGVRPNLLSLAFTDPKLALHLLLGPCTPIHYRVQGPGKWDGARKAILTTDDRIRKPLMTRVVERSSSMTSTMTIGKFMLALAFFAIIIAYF

[5] = biological target: T1, Flavin-containing monooxygenase 5; experiment: Drug metabolism assessed as human recombinant FMO5-mediated ER-879123 formation in presence of dog liver cytosolic fractions at 50 uM after 60 mins by LC-MS/MS method; type: ADME, tissue-based; conditions: recombinant enzyme, 1 h
[6] = biological target: T1, Flavin-containing monooxygenase 5; experiment: Drug metabolism assessed as human recombinant FMO5-mediated ER-879123 formation in presence of human liver cytosolic fractions at 50 uM after 60 mins by LC-MS/MS method; type: ADME, tissue-based; conditions: recombinant enzyme, 1 h
[7] = biological target: T1, Flavin-containing monooxygenase 5; experiment: Drug metabolism assessed as human recombinant FMO5-mediated ER-879123 formation in absence of rat liver cytosolic fractions at 50 uM after 60 mins by LC-MS/MS method; type: ADME, tissue-based; conditions: recombinant enzyme, 1 h
[8] = biological target: T1, Flavin-containing monooxygenase 5; experiment: Drug metabolism assessed as human recombinant FMO5-mediated ER-879123 formation in absence of dog liver cytosolic fractions at 50 uM after 60 mins by LC-MS/MS method; type: ADME, tissue-based; conditions: recombinant enzyme, 1 h
[9] = biological target: T1, Flavin-containing monooxygenase 5; experiment: Drug metabolism assessed as human recombinant FMO5-mediated ER-879123 formation in absence of human liver cytosolic fractions at 50 uM after 60 mins by LC-MS/MS method; type: ADME, tissue-based; conditions: recombinant enzyme, 1 h
[10] = Drug metabolism in dog liver S9 fraction assessed as ER-879123 formation at 50 uM after 60 mins in presence of NAD+ by LC-MS/MS method; type: ADME, subcellular, Canis lupus familiaris; conditions: s9, 1 h
[11] = Drug metabolism in human liver S9 fraction assessed as ER-879123 formation at 50 uM after 60 mins in presence of NAD+ by LC-MS/MS method; type: ADME, subcellular; conditions: s9, 1 h
[12] = Drug metabolism in human liver S9 fraction assessed as ER-879123 formation at 50 uM after 60 mins in presence of NAD+ and alcohol dehydrogenase inhibitor 4-methylpyrazole by LC-MS/MS method; type: ADME, subcellular; conditions: s9, 1 h
[13] = Drug metabolism in human liver S9 fraction assessed as ER-879123 formation at 50 uM after 60 mins in presence of NAD+ and carboxylesterase inhibitor BNPP by LC-MS/MS method; type: ADME, subcellular; conditions: 1 h
[14] = Drug metabolism in 50 degC treated dog liver S9 fraction assessed as ER-879123 formation at 50 uM after 60 mins in absence of NAD+ by LC-MS/MS method; type: ADME, tissue-based, Canis lupus familiaris; conditions: s9, 1 h
[15] = Drug metabolism in human liver S9 fraction assessed as ER-879123 formation at 50 uM after 60 mins in presence of NAD+ and FMO1 and FMO3 substrate/inhibitor methimazole by LC-MS/MS method; type: ADME, subcellular; conditions: s9, 1 h
[16] = Drug metabolism in dog liver S9 fraction assessed as ER-879123 formation at 50 uM after 60 mins in presence of NAD+ and FMO1 and FMO3 substrate/inhibitor methimazole by LC-MS/MS method; type: ADME, subcellular, Canis lupus familiaris; conditions: s9, 1 h
[17] = Drug metabolism in dog liver S9 fraction assessed as ER-879123 formation at 50 uM after 60 mins in presence of NAD+ and carboxylesterase inhibitor BNPP by LC-MS/MS method; type: ADME, subcellular, Canis lupus familiaris; conditions: 1 h
[18] = Drug metabolism in dog liver S9 fraction assessed as ER-879123 formation at 50 uM after 60 mins in presence of NAD+ and alcohol dehydrogenase inhibitor 4-methylpyrazole by LC-MS/MS method; type: ADME, subcellular, Canis lupus familiaris; conditions: s9, 1 h
[19] = system: Liver microsome; experiment: Drug metabolism in dog liver microsomes assessed as ER-879123 formation at 50 uM after 60 mins in presence of NADPH by LC-MS/MS method; type: ADME, Canis lupus familiaris; conditions: 1 h
[20] = system: Liver microsome; experiment: Drug metabolism in rat liver microsomes assessed as ER-879123 formation at 50 uM after 60 mins in presence of NADPH by LC-MS/MS method; type: ADME; conditions: 1 h
[21] = system: Liver microsome; experiment: Drug metabolism in human liver microsomes assessed as ER-879123 formation at 50 uM after 60 mins in presence of NADPH by LC-MS/MS method; type: ADME; conditions: 1 h
[22] = Drug metabolism in dog hepatocytes assessed as ER-879123 formation at 50 uM after 120 mins in presence of NADPH by LC-MS/MS method; type: ADME, cell-based, Canis lupus familiaris, Hepatocyte; conditions: 2 h
[23] = Drug metabolism in rat hepatocytes assessed as ER-879123 formation at 50 uM after 120 mins in presence of NADPH by LC-MS/MS method; type: ADME, cell-based, Hepatocyte; conditions: 2 h
[24] = Drug metabolism in human hepatocytes assessed as ER-879123 formation at 50 uM after 120 mins in presence of NADPH by LC-MS/MS method; type: ADME, cell-based, Hepatocyte; conditions: 2 h
[25] = biological target: T2, Flavin-containing monooxygenase 3 (Homo sapiens, UniProt P31513); experiment: Drug metabolism assessed as human recombinant FMO3-mediated ER-879123 formation in presence of dog liver cytosolic fractions and NAD+ at 50 uM after 60 mins by LC-MS/MS method; type: ADME, tissue-based; conditions: recombinant enzyme, 1 h
T2 sequence (P31513 whole entry): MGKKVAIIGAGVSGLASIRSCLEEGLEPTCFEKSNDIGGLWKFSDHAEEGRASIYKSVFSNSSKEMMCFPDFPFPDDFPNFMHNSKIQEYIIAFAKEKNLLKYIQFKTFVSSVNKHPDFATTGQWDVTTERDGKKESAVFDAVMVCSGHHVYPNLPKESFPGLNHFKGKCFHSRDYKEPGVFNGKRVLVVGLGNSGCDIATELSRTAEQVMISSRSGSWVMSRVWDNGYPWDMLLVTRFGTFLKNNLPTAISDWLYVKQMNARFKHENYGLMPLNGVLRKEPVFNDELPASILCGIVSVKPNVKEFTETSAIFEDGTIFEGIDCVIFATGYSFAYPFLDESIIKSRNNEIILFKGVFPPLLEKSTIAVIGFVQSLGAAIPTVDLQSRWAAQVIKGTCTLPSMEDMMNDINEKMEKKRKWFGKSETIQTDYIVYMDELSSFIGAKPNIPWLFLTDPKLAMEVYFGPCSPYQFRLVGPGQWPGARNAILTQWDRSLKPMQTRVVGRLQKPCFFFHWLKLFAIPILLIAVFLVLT

[26] = biological target: T3, Flavin-containing monooxygenase 1 (Homo sapiens, UniProt Q01740); experiment: Drug metabolism assessed as human recombinant FMO1-mediated ER-879123 formation in presence of dog liver cytosolic fractions and NAD+ at 50 uM after 60 mins by LC-MS/MS method; type: ADME, tissue-based; conditions: recombinant enzyme, 1 h
T3 sequence (Q01740 whole entry): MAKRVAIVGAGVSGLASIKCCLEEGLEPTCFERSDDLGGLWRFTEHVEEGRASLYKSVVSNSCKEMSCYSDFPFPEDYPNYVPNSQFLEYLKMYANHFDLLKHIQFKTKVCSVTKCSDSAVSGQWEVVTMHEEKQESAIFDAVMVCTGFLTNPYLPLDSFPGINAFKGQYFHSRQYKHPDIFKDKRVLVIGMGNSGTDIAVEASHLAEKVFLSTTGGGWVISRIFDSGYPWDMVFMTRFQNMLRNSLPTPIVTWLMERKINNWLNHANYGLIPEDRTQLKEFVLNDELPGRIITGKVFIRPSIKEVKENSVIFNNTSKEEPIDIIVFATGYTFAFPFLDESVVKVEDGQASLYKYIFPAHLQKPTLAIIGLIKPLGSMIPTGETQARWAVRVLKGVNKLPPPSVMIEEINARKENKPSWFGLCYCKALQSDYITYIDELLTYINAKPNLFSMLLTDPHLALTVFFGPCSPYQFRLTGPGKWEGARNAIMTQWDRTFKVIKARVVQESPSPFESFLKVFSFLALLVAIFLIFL

O=c1[nH]nc2c3c(cccc13)Oc1ccc(CN3CCC(O)CC3)cc1-2 [E-7016]
Drug metabolism [1]: metabolite_detected | Drug metabolism [2]: metabolite_detected | Drug metabolism [3]: metabolite_not_detected | Drug metabolism [4]: metabolite_detected | Drug metabolism [5]: metabolite_detected | Drug metabolism [6]: metabolite_detected | Drug metabolism [7]: metabolite_not_detected | Drug metabolism [8]: metabolite_not_detected | Drug metabolism [9]: metabolite_not_detected | Drug metabolism [10]: metabolite_detected | Drug metabolism [11]: metabolite_detected | Drug metabolism [12]: metabolite_not_detected | Drug metabolism [13]: metabolite_not_detected | Drug metabolism [14]: metabolite_not_detected | Drug metabolism [15]: metabolite_detected | Drug metabolism [16]: metabolite_detected | Drug metabolism [17]: metabolite_not_detected | Drug metabolism [18]: metabolite_not_detected | Drug metabolism [19]: metabolite_not_detected | Drug metabolism [20]: metabolite_not_detected | Drug metabolism [21]: metabolite_not_detected | Drug metabolism [22]: metabolite_detected | Drug metabolism [23]: metabolite_detected | Drug metabolism [24]: metabolite_detected | Drug metabolism [25]: metabolite_not_detected | Drug metabolism [26]: metabolite_not_detected
